Measured values as given in patent US12043600B2, “Microbiocidal compounds” (SYNGENTA CROP PROTECTION AG, priority 2018, dated 2024).

Key:
Phakopsora pachyrhizi = test: Phakopsora pachyrhizi/Soybean/Preventative (Soybean Rust); type: in vivo; settings: foliar, 288 h, 200 ppm, soybean leaf disc preventative, compared to untreated control, read-out: control of Phakopsora pachyrhizi
[1] = tested on: Puccinia recondita f. sp. tritici; test: Puccinia recondita f. sp. tritici/Wheat/Leaf Disc Preventative (Brown Rust); type: in vivo; settings: foliar, 200 ppm, wheat leaf disc preventative, compared to untreated control, read-out: control of Puccinia recondita f. sp. tritici
[2] = tested on: Mycosphaerella graminicola (Septoria tritici); test: Mycosphaerella graminicola (Septoria tritici)/Liquid Culture (Septoria Blotch); type: cell-based; settings: Zymoseptoria tritici; 20 ppm; liquid culture; compared to untreated control
Summary of the method: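 Results given as % disease control: test compound in DMSO was placed in wells first, then potato dextrose broth carrying cryostored fungal conidia was added.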

Plasmopara viticola = test: whole plant or invertebrate; type: in vivo; settings: foliar, read-out: control of Plasmopara viticola
[3] = tested on: Monographella nivalis (Microdochium nivale); test: Monographella nivalis (Microdochium nivale)/Liquid Culture (Foot Rot Cereals); type: cell-based; settings: liquid culture, compared to untreated control
Summary of the method: (§1)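 Growth inhibition read in liquid culture: spores from frozen stocks, suspended in potato dextrose broth, meet DMSO-dissolved compound placed beforehand in the plate.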

[4] = tested on: Mycosphaerella arachidis (Cercospora arachidicola); test: Mycosphaerella arachidis (Cercospora arachidicola)/Liquid Culture (Early Leaf Spot); type: cell-based; settings: liquid culture, compared to untreated control
Summary of the method: as §1

Pyrenophora teres = test: Pyrenophora teres/Barley/Leaf Disc Preventative (Net Blotch); type: in vivo; settings: foliar, 200 ppm, barley leaf disc preventative, compared to untreated control, read-out: control of Pyrenophora teres
Excerpt: Barley leaf segments cv. Hasso are placed on agar in a multiwell plate (24-well format) and sprayed with the formulated test compound diluted in water. The leaf segments are inoculated with a spore suspension of the fungus 2 days after application. […] The data are presented as the percentage of disease control of each compound for the biological tests against G. lagenarium (Example B3), P. recondita preventative (Example B13), P. teres (Example B15) and M. graminicola (Example B19) as described above. The testing rates of each biological test is specifically described in table C1 below.

[5] = tested on: Phaeosphaeria nodorum (Septoria nodorum); test: Phaeosphaeria nodorum (Septoria nodorum)/Wheat/Leaf Disc Preventative (Glume Blotch); type: in vivo; settings: Parastagonospora nodorum, foliar, wheat leaf disc preventative, compared to untreated control
Summary of the method: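 Preventative test: compound spray first, then spore inoculation after 2 days on cv. Kanzler wheat leaf segments. Incubation in a climate cabinet at 20 °C and 75% rh under a 12 h light/12 h dark cycle. Activity rated as % control relative to untreated discs at 5–7 days post-application.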

[6] = tested on: Magnaporthe grisea (Pyricularia oryzae); test: whole plant or invertebrate; type: in vivo; settings: foliar, read-out: control of Magnaporthe grisea
Phytophthora infestans = test: whole plant or invertebrate; type: in vivo; settings: in Solanum lycopersicum, foliar, read-out: control of Phytophthora infestans
[7] = tested on: Glomerella lagenarium (Colletotrichum lagenarium); test: Glomerella lagenarium (Colletotrichum lagenarium)/Liquid Culture (Anthracnose); type: cell-based; settings: Colletotrichum orbiculare, liquid culture, compared to untreated control
[8] = tested on: Blumeria graminis f. sp. tritici (Erysiphe graminis f. sp. tritici); test: Blumeria graminis f. sp. tritici/Wheat/Leaf Disc Preventative (Powdery Mildew on Wheat); type: in vivo; settings: foliar, wheat leaf disc preventative, compared to untreated control
Summary of the method: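 Preventative leaf-disc test: percent disease control versus untreated leaf segments read 6-8 days post-application. Compound spray applied to wheat cv. Kanzler segments on agar one day before shaking infected plants over them; incubation at 20° C and 60% rh, 24 h darkness then 12 h light/12 h dark cycles.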

[9] = tested on: Puccinia recondita f. sp. tritici; test: Puccinia recondita f. sp. tritici/Wheat/Leaf Disc Curative (Brown Rust); type: in vivo; settings: foliar, wheat leaf disc curative, compared to untreated control
Summary of the method: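 Formulated compound, diluted in water, is applied to inoculated wheat cv. Kanzler leaf segments on agar one day post-inoculation (pre-incubation dark, 19° C, 75% rh). After 6-8 days at 19° C, 75% rh and 12 h/12 h light, activity is rated as percent disease control relative to untreated segments.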

Row | Compound | pest or weed control at 200 ppm (Phakopsora pachyrhizi) [%] | pest or weed control at 200 ppm [1] [%] | melting point [°C] | inhibition of growth at 20 ppm [2] [%] | pest or weed control at 200 ppm (Plasmopara viticola) [%] | inhibition of growth at 20 ppm [3] [%] | inhibition of growth at 20 ppm [4] [%] | pest or weed control at 200 ppm (Pyrenophora teres) [%] | pest or weed control at 200 ppm [5] [%] | pest or weed control at 200 ppm [6] [%] | pest or weed control at 200 ppm (Phytophthora infestans) [%] | inhibition of growth at 20 ppm [7] [%] | pest or weed control at 200 ppm [8] [%] | pest or weed control at 200 ppm [9] [%]
1 | CC#Cc1ccn(-c2ccc(C)c(O/C(=C\OC)C(=O)OC)c2)n1 [Compound E-2, methyl (Z)-3-methoxy-2-[2-methyl-5-(3-prop-1-ynylpyrazol-1-yl)phenoxy]prop-2-enoate] | ≥ 50 | ≥ 80 | 175 to 179 | ≥ 80 | ≥ 80 | ≥ 80 | ≥ 80 | ≥ 80 | ≥ 80 | ≥ 80 |  |  |  | 
2 | CO/C=C(\Oc1cc(-n2cc(Cl)c(OC(C)C)n2)ccc1C)C(=O)OC [Compound E-12, methyl (Z)-2-[5-(4-chloro-3-isopropoxy-pyrazol-1-yl)-2-methyl-phenoxy]-3-methoxy-prop-2-enoate] |  | ≥ 80 | 104 to 107 | ≥ 80 | ≥ 80 | ≥ 80 | ≥ 80 | ≥ 80 |  | ≥ 80 | ≥ 80 | ≥ 80 |  | 
3 | CO/C=C(\Oc1cc(-n2ccc(I)n2)ccc1C)C(=O)OC [Compound E-78, methyl (Z)-2-[5-(3-iodopyrazol-1-yl)-2-methyl-phenoxy]-3-methoxy-prop-2-enoate] |  | ≥ 80 | 156 to 159 | ≥ 80 | ≥ 80 | ≥ 80 | ≥ 80 | ≥ 80 | ≥ 80 | ≥ 80 | ≥ 80 | ≥ 80 | ≥ 80 | 
4 | CO/C=C(\Oc1cc(-n2ccc(C(F)(F)F)n2)ccc1C1CC1)C(=O)OC [Compound E-108, methyl (Z)-2-[2-cyclopropyl-5-[3-(trifluoromethyl)pyrazol-1-yl]phenoxy]-3-methoxy-prop-2-enoate] |  | ≥ 80 | 130 to 132 | ≥ 80 |  | ≥ 80 | ≥ 80 | ≥ 80 |  |  |  |  | ≥ 80 | 
5 | CCc1ccc(-n2ccc(C(F)(F)F)n2)cc1O/C(=C\OC)C(=O)OC [Compound E-109, methyl (Z)-2-[2-ethyl-5-[3-(trifluoromethyl)pyrazol-1-yl]phenoxy]-3-methoxy-prop-2-enoate] |  | ≥ 80 | 135 to 137 | ≥ 80 | ≥ 80 | ≥ 80 | ≥ 80 | ≥ 80 |  |  |  |  | ≥ 80 | 
6 | CO/C=C(\Oc1cc(-n2ccc(C3CCCCC3)n2)c(F)cc1C)C(=O)OC [Compound E-114, methyl (Z)-2-[5-(3-cyclohexylpyrazol-1-yl)-4-fluoro-2-methyl-phenoxy]-3-methoxy-prop-2-enoate] |  | ≥ 80 |  | ≥ 80 | ≥ 80 | ≥ 80 | ≥ 80 | ≥ 80 | ≥ 80 | ≥ 80 | ≥ 80 | ≥ 80 | ≥ 80 | ≥ 80
